SMILES strings stand for the structures. “Also recorded” adds a separate entry of the source.

Assay [1] relates to paclitaxel induced painful neuropathy. In words: Paclitaxel induced painful neuropathy, mechanical allodynia (von Frey filaments). It is filed as in vivo, Wistar rats. The following applies: paclitaxel neuropathic rats. From the text:
The aim of this study was to evaluate the effect of oral administration of butorphanol in rats with paclitaxel induced painful neuropathy. The primary measurements were made mechanical and thermal allodynia designed to detect effects of the treatment(s) on neuropathic pain.
Wistar rats weighing 250±20 g were maintained on standard laboratory diet and having free access to tap water ad lib were employed in the present study. They were housed in the animal house and were exposed to 12 hr cycle of light and dark. The experiments were conducted in a semi-sound proof laboratory. Care of the animals was in accordance with guidelines for experimentation on animals.
Rats were injected on five alternate days (day 4, 6, 8, 10 & 12) with paclitaxel (2 mg/kg i.p.) using an injection volume of 2 ml/kg. Thus, the cumulative dose of paclitaxel was computed to be 10 mg/kg. […]
Mechano-allodynia was assessed using von Frey filaments. […] Both hind paws were tested for allodynia and the average of the two was recorded as data. Results were expressed in grams and determined before and 30 and 60 min after the administration of the test drugs.
The anti-nociceptive effect was plotted assessed having time (relative to dosing time point) on the x-axis and percent maximum possible effect (% MPE) on the y-axis. The results were expressed as mean±standard error of means (S.E.M.). […]

The next assay relates to opioid receptors. The following applies: cited from earlier work.

In the case of `Oc1ccc2c(c1)[C@@]13CCCC[C@@]1(O)[C@@H](C2)N(CC1CCC1)CC3` [butorphanol, (−)17-(Cyclobutylmethyl)morphinan-3,14-diol], the “time of peak effect post-administration (mechanical allodynia)” value in assay [1] (oral) turned out to be 30 min. Also, the mechanical withdrawal threshold entry in assay [1] (p.o. 0.01, 0.03, 0.1, 0.3 mg/kg, FIG. 17) is recorded as “dose dependent increase; also recorded: significant increase”. Besides, the “activity at opioid receptors” value with opioid receptors is recorded as “partial agonist”.

Values taken from patent US10624887B2, “Compositions of (-)-17-(cyclobutylmethyl)morphinan-3,14,-diol” (priority 2010, dated 2020).
